Results from the NIST ThermoML archive (doi:10.1016/j.jct.2014.01.020).

Assay: molar heat capacity at constant pressure; xn = mol fraction of the nth substance listed
Details: Liquid, Flow calorimetry

C1CCCCC1 [cyclohexane] + CCCCO
molar heat capacity at constant pressure [J/K/mol]
Details	x2 = 0	x2 = 0.1013	x2 = 0.2003	x2 = 0.3002	x2 = 0.4013	x2 = 0.4997	x2 = 0.6002	x2 = 0.6999	x2 = 0.7998	x2 = 0.8999
293.15 K, 100 kPa	154.7	164.6	166.7	168.6	170.9	171.2	171.4	172.1	172.2	172.8
293.15 K, 5000 kPa	153.8	163.3	165.3	167.1	169.5	169.7	170.2	170.6	171	171.9
293.15 K, 10000 kPa	152.5	161.2	163.5	165.4	167.7	168.2	168.6	169.4	169.5	170.4
293.15 K, 15000 kPa	150.5	159.1	161	163.4	165.5	165.9	166.3	168	168.3	169.1
293.15 K, 20000 kPa	149.7	157.5	159.3	161.7	164.4	164.9	164.8	167.1	167.1	167.7
293.15 K, 25000 kPa	147.7	155.9	157.8	160.3	162.8	163.1	163.4	165.6	166	166.6
313.15 K, 100 kPa	–	179.7	182.8	185.3	187.8	188.1	189.4	191.3	191.4	191.1
313.15 K, 5000 kPa	–	177.4	180.4	183.2	186.1	186.5	187.4	189.1	189.9	189.3
313.15 K, 10000 kPa	–	175.2	178.8	181.1	183.7	184.5	185.4	187.4	188.9	187.3
313.15 K, 15000 kPa	–	172.9	175.8	178.9	181.6	182.7	183.8	185.5	187.2	186.5
313.15 K, 20000 kPa	–	170.5	173.8	177	180.4	180.7	181.4	184.3	185.4	184.6
313.15 K, 25000 kPa	154.6	168.7	171.6	175	177.8	179.3	179.7	182.3	183.9	183.1
